*1 amine or outer side, *2 acyl side, *3 side chain or, on linkers, in order; H or OH if unused. Where a SMILES comes first, the peptide text is derived from it. Side-chain parts run from the residue outwards. The star is where a group is joined. C18 diacid = O=C(O)CCCCCCCCCCCCCCCCC(=O)*; γGlu = O=C(O)[C@H](CCC(=O)[*:2])N[*:1]; Isovaleryl = CC(C)CC(=O)*; AEEA = NCCOCCOCC(=O)O

As usually defined, the Ki is the dissociation constant of the complex between target and ligand, obtained from inhibition or displacement.

This assay concerns the target T1, Human Neuropeptide Y2 Receptor (Homo sapiens, UniProt P49146).
T1 construct: purchased CHEMICON HTS066M
T1 sequence (P49146 1-381): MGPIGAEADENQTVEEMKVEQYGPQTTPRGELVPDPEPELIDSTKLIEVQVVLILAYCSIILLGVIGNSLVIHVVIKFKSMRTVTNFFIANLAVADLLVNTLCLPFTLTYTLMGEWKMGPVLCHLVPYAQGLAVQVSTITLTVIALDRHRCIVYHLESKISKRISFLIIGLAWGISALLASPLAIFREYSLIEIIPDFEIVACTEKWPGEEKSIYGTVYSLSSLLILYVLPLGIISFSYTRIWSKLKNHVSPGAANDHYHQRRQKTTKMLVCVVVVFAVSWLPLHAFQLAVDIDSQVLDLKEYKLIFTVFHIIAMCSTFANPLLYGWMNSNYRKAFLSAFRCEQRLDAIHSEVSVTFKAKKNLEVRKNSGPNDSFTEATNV
Kind of assay: Radioligand binding competition assay (RLB). As to conditions: Table 3; human 125I-PYY (1-36) 0.02 nM, Y2 receptor membranes; read-out: Ki. An outline of the steps: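 Competition binding at commercial human NPY Y2 membrane preparations, 0.5 μg protein per well, 2 h incubation at room temperature. Bound and free ligand were separated on GF/C filters and counted; IC50 was fitted by nonlinear regression.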
With `CC(C)CC(=O)N[C@@H](C)C(=O)N1CCC[C@H]1C(=O)N[C@@H](CCC(=O)O)C(=O)N[C@@H](CCCCNC(=O)COCCOCCNC(=O)COCCOCCNC(=O)CC[C@H](NC(=O)CCCCCCCCCCCCCCCCC(=O)O)C(=O)O)C(=O)N1CCC[C@H]1C(=O)N[C@@H](CCC(=O)O)C(=O)N[C@@H](CCC(=O)O)C(=O)N[C@@H](C)C(=O)N[C@@H](C)C(=O)N[C@@H](CO)C(=O)N1CCC[C@H]1C(=O)N[C@@H](CCC(=O)O)C(=O)N[C@@H](CCC(=O)O)C(=O)N[C@@H](CC(C)C)C(=O)N[C@@H](CCC(N)=O)C(=O)N[C@@H](CCCNC(=N)N)C(=O)N[C@@H](Cc1ccc(O)cc1)C(=O)N[C@@H](Cc1ccc(O)cc1)C(=O)N[C@H](C(=O)N[C@@H](CO)C(=O)N[C@@H](C)C(=O)N[C@@H](CCCNC(=N)N)C(=O)N[C@@H](Cc1c[nH]cn1)C(=O)N[C@@H](Cc1ccc(O)cc1)C(=O)N[C@@H](Cc1ccc(O)cc1)C(=O)N[C@@H](CC(N)=O)C(=O)N[C@@H](Cc1c[nH]c2ccccc12)C(=O)N[C@@H](CC(C)C)C(=O)N[C@H](C(=O)N[C@@H](CCCNC(=N)N)C(=O)N[C@@H](CCC(N)=O)C(=O)N[C@@H](CCCNC(=N)N)C(=O)N[C@@H](Cc1ccc(O)cc1)C(N)=O)[C@@H](C)O)C(C)C` [Compound 141, N{alpha-4}-(3-methylbutanoyl)-N{epsilon-7}-[2-(2-{2-[2-(2-{2-[(4S)-4-carboxy-4-(17-carboxyheptadecanamido)butanamido]ethoxy}ethoxy)acetamido]ethoxy}ethoxy)acetamido]-[4A,7K,9E,11A,18Q,22V,24A,28Y,30W,31L]hPYY (4-36)] (Isovaleryl-APEK([AEEA-AEEA-γGlu-C18 diacid])PEEAASPEELQRYYVSARHYYNWLTRQRY-NH2), the Ki came to 3.12 nM.

`CC(C)CC(=O)N[C@@H](C)C(=O)N1CCC[C@H]1C(=O)N[C@@H](CCC(=O)O)C(=O)N[C@@H](CCCCNC(=O)COCCOCCNC(=O)COCCOCCNC(=O)CC[C@H](NC(=O)CCCCCCCCCCCCCCCCC(=O)O)C(=O)O)C(=O)N1CCC[C@H]1C(=O)N1CCC[C@H]1C(=O)N[C@@H](CCC(=O)O)C(=O)N[C@@H](CCC(=O)O)C(=O)N[C@@H](C)C(=O)N[C@@H](CO)C(=O)N1CCC[C@H]1C(=O)N[C@@H](CCC(=O)O)C(=O)N[C@@H](CCC(=O)O)C(=O)N[C@@H](CC(C)C)C(=O)N[C@@H](CCC(N)=O)C(=O)N[C@@H](CCCNC(=N)N)C(=O)N[C@@H](Cc1ccc(O)cc1)C(=O)N[C@@H](Cc1ccc(O)cc1)C(=O)N[C@H](C(=O)N[C@@H](CO)C(=O)N[C@@H](CC(C)C)C(=O)N[C@@H](CCCNC(=N)N)C(=O)N[C@@H](Cc1c[nH]cn1)C(=O)N[C@@H](Cc1ccc(O)cc1)C(=O)N[C@@H](Cc1ccc(O)cc1)C(=O)N[C@@H](CC(N)=O)C(=O)N[C@@H](Cc1c[nH]c2ccccc12)C(=O)N[C@@H](CC(C)C)C(=O)N[C@H](C(=O)N[C@@H](CCCNC(=N)N)C(=O)N[C@@H](CCC(N)=O)C(=O)N[C@@H](CCCNC(=N)N)C(=O)N[C@@H](Cc1ccc(O)cc1)C(N)=O)[C@@H](C)O)C(C)C` [Compound 142, N{alpha-4}-(3-methylbutanoyl)-N{epsilon-7}-[2-(2-{2-[2-(2-{2-[(4S)-4-carboxy-4-(17-carboxyheptadecanamido)butanamido]ethoxy}ethoxy)acetamido]ethoxy}ethoxy)acetamido]-[4A,7K,9P,11E,18Q,22V,28Y,30W,31L]hPYY (4-36)]: the inhibition constant (Ki) turned out to be 1.17 nM.

For the molecule `CC(C)CC(=O)N[C@@H](C)C(=O)N1CCC[C@H]1C(=O)N[C@@H](CCC(=O)O)C(=O)N[C@@H](CCCCNC(=O)COCCOCCNC(=O)COCCOCCNC(=O)CC[C@H](NC(=O)CCCCCCCCCCCCCCCCC(=O)O)C(=O)O)C(=O)N[C@@H](C)C(=O)N[C@@H](CCC(=O)O)C(=O)N[C@@H](CCC(=O)O)C(=O)N[C@@H](CC(=O)O)C(=O)N[C@@H](C)C(=O)N[C@@H](CO)C(=O)N1CCC[C@H]1C(=O)N[C@@H](CCC(=O)O)C(=O)N[C@@H](CCC(=O)O)C(=O)N[C@@H](CC(C)C)C(=O)N[C@@H](CCC(N)=O)C(=O)N[C@@H](CCC(N)=O)C(=O)N[C@@H](Cc1ccc(O)cc1)C(=O)N[C@@H](Cc1ccc(O)cc1)C(=O)N[C@H](C(=O)N[C@@H](CO)C(=O)N[C@@H](CC(C)C)C(=O)N[C@@H](CCCNC(=N)N)C(=O)N[C@@H](Cc1c[nH]cn1)C(=O)N[C@@H](Cc1ccc(O)cc1)C(=O)N[C@@H](Cc1ccc(O)cc1)C(=O)N[C@@H](CC(N)=O)C(=O)N[C@@H](Cc1c[nH]c2ccccc12)C(=O)N[C@@H](CC(C)C)C(=O)N[C@H](C(=O)N[C@@H](CCCNC(=N)N)C(=O)N[C@@H](CCC(N)=O)C(=O)N[C@@H](CCCNC(=N)N)C(=O)N[C@@H](Cc1ccc(O)cc1)C(N)=O)[C@@H](C)O)C(C)C` [Compound 144, N{alpha-4}-(3-methylbutanoyl)-N{epsilon-7}-[2-(2-{2-[2-(2-{2-[(4S)-4-carboxy-4-(17-carboxyheptadecanamido)butanamido]ethoxy}ethoxy)acetamido]ethoxy}ethoxy)acetamido]-[4A,7K,8A,9E,18Q,19Q,22V,28Y,30W,31L]hPYY (4-36)] (Isovaleryl-APEK([AEEA-AEEA-γGlu-C18 diacid])AEEDASPEELQQYYVSLRHYYNWLTRQRY-NH2), the inhibition constant (Ki) came to 8.92 nM.

On to `CC[C@H](C)[C@H](NC(=O)[C@H](CCC(=O)O)NC(=O)[C@H](CCC(=O)O)NC(=O)[C@@H]1CCCN1C(=O)[C@H](CO)NC(=O)[C@H](CO)NC(=O)[C@H](CC(=O)O)NC(=O)[C@H](CCC(=O)O)NC(=O)[C@H](CCC(=O)O)NC(=O)[C@@H]1CCCN1C(=O)[C@H](CCCCNC(=O)COCCOCCNC(=O)COCCOCCNC(=O)CC[C@H](NC(=O)CCCCCCCCCCCCCCCCC(=O)O)C(=O)O)NC(=O)[C@H](CCC(=O)O)NC(=O)[C@@H]1CCCN1C(=O)[C@H](C)NC(=O)CC(C)C)C(=O)N[C@@H](CCC(N)=O)C(=O)N[C@@H](CCCNC(=N)N)C(=O)N[C@@H](Cc1ccc(O)cc1)C(=O)N[C@@H](Cc1ccc(O)cc1)C(=O)N[C@H](C(=O)N[C@@H](CO)C(=O)N[C@@H](CC(C)C)C(=O)N[C@@H](CCCNC(=N)N)C(=O)N[C@@H](Cc1c[nH]cn1)C(=O)N[C@@H](Cc1ccc(O)cc1)C(=O)N[C@@H](Cc1ccc(O)cc1)C(=O)N[C@@H](CC(N)=O)C(=O)N[C@@H](Cc1c[nH]c2ccccc12)C(=O)N[C@@H](CC(C)C)C(=O)N[C@H](C(=O)N[C@@H](CCCNC(=N)N)C(=O)N[C@@H](CCC(N)=O)C(=O)N[C@@H](CCCNC(=N)N)C(=O)N[C@@H](Cc1ccc(O)cc1)C(N)=O)[C@@H](C)O)C(C)C` [Compound 145, N{alpha-4}-(3-methylbutanoyl)-N{epsilon-7}-[2-(2-{2-[2-(2-{2-[(4S)-4-carboxy-4-(17-carboxyheptadecanamido)butanamido]ethoxy}ethoxy)acetamido]ethoxy}ethoxy)acetamido]-[4A,7K,9E,12S,17I,18Q,22V,28Y,30W,31L]hPYY (4-36)], for which the Ki was determined as 1.55 nM.

The record behind these values is patent publication US12559529B2, “NPY2 receptor agonists” (Boehringer Ingelheim International GmbH, priority 2019, dated 2026).
